Results published in patent US9790230B2 (Hoffmann-La Roche Inc., priority 2015, dated 2017).
pKi: −log10 of the molar value. Like-named read-outs stand apart in the source and are kept apart here.

Legend:
rat TAAR1 = rat TAAR1 (Rattus norvegicus (Rat), UniProt Q923Y9); assay: Radioligand binding assay on rat TAAR1; conditions: for Ki: read-out: Ki (μM) rat, rat TAAR1, HEK-293 membranes, second value of cell mouse/rat;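 on all read-outs here: membranes from HEK293 cells stably transfected with rat TAAR1, tritiated TAAR1 radioligand, 1 h incubation at 4 °C, nonspecific binding determined with excess unlabeled ligand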
Procedure: (§1) Membrane Preparation and Radioligand Binding.
HEK-293 cells stably expressing rat TAAR1 were maintained at 37° C. and 5% CO2 in DMEM high glucose medium, containing fetal calf serum (10%, heat inactivated for 30 min at 56° C.), penicillin/streptomycin (1%), and 375 μg/ml geneticin (Gibco). Cells were released from culture flasks using trypsin/EDTA, harvested, washed twice with ice-cold PBS (without Ca^2+ and Mg^2+), pelleted at 1'000 rpm for 5 min at 4° C., frozen and stored at −80° C. Frozen pellets were suspended in 20 ml HEPES-NaOH (20 mM, pH 7.4) containing 10 mM EDTA and homogenized with a Polytron (PT 6000, Kinematica) at 14′000 rpm for 20 s. The homogenate was centrifuged at 48'000×g for 30 min at 4° C. Subsequently, the supernatant was removed and discarded, and the pellet resuspended in 20 ml HEPES-NaOH (20 mM, pH 7.4) containing 0.1 mM EDTA using the Polytron (20 s at 14'000 rpm). This procedure was repeated and the final pellet resuspended in HEPES-NaOH containing 0.1 mM EDTA and homogenized using the Polytron. Typically, aliquots of 2 ml membrane portions were stored at −80° C. With each new membrane batch the dissociation constant (Kd) was determined via a saturation curve. […] Nonspecific binding was defined as the amount of 3 [H]—(S)-4-[(ethyl-phenyl-amino)-methyl]-4,5-dihydro-oxazol-2-ylamine bound in the presence of 10 M unlabeled ligand. All compounds were tested at a broad range of concentrations (10 pM to 10 μM) in duplicates. […] The 96 deep well plates were incubated for 1 hr at 4° C. Incubations were terminated by rapid filtration through Unifilter-96 plates (Packard Instrument Company) and glass filters GF/C (Perkin Elmer) presoaked for 1 hr in polyethylenimine (0.3%) and washed 3 times with 1 ml of cold binding buffer. After addition of 45 μl of Microscint 40 (PerkinElmer) the Unifilter-96 plate was sealed and after 1 hr the radioactivity counted using a TopCount Microplate Scintillation Counter (Packard Instrument Company).

mouse TAAR1 = mouse TAAR1 (Mus musculus (Mouse), UniProt Q923Y8); assay: Radioligand binding assay on mouse TAAR1; conditions: for Ki: read-out: Ki (μM) mouse, mouse TAAR1, HEK-293 membranes, first value of cell mouse/rat
Chain of mouse TAAR1 (Q923Y8 whole entry): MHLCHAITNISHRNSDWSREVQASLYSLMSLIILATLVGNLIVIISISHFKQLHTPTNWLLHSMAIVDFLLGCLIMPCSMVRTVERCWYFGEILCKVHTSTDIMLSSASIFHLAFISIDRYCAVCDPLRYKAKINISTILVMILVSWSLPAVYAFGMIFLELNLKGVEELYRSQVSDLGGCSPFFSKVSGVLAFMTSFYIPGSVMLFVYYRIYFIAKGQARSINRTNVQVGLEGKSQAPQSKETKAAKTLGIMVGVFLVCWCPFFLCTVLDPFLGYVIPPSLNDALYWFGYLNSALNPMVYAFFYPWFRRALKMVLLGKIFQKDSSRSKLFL
Procedure: Radioligand Binding Assay on Mouse TAAR1
as §1
HEK-293 cells stably expressing mouse TAAR1 were maintained at 37° C. and 5% CO2 in DMEM high glucose medium, containing fetal calf serum (10%, heat inactivated for 30 min at 56° C.), penicillin/streptomycin (1%), and 375 μg/ml geneticin (Gibco). Cells were released from culture flasks using trypsin/EDTA, harvested, washed twice with ice-cold PBS (without Ca^2+ and Mg^2+), pelleted at 1'000 rpm for 5 min at 4° C., frozen and stored at −80° C. Frozen pellets were suspended in 20 ml HEPES-NaOH (20 mM, pH 7.4) containing 10 mM EDTA and homogenized with a Polytron (PT 6000, Kinematica) at 14'000 rpm for 20 s. The homogenate was centrifuged at 48'000×g for 30 min at 4° C. Subsequently, the supernatant was removed and discarded, and the pellet resuspended in 20 ml HEPES-NaOH (20 mM, pH 7.4) containing 0.1 mM EDTA using the Polytron (20 s at 14'000 rpm). This procedure was repeated and the final pellet resuspended in HEPES-NaOH containing 0.1 mM EDTA and homogenized using the Polytron. Typically, aliquots of 2 ml membrane portions were stored at −80° C. With each new membrane batch the dissociation constant (Kd) was determined via a saturation curve. The TAAR1 radioligand ^3[H]—(S)-4-[(ethyl-phenyl-amino)-methyl]-4,5-dihydro-oxazol-2-ylamine (described in WO 2008/098857) was used at a concentration equal to the calculated Kd value, that was usually around 0.7 nM, resulting in the binding of approximately 0.5% of the radioligand and a specific binding representing approximately 70% of the total binding. Nonspecific binding was defined as the amount of ^3[H]—(S)-4-[(ethyl-phenyl-amino)-methyl]-4,5-dihydro-oxazol-2-ylamine bound in the presence of 10 M unlabeled ligand. All compounds were tested at a broad range of concentrations (10 pM to 10 μM) in duplicates. […] The 96 deep well plates were incubated for 1 hr at 4° C. Incubations were terminated by rapid filtration through Unifilter-96 plates (Packard Instrument Company) and glass filters GF/C (Perkin Elmer) presoaked for 1 hr in polyethylenimine (0.3%) and washed 3 times with 1 ml of cold binding buffer. After addition of 45 μl of Microscint 40 (PerkinElmer) the Unifilter-96 plate was sealed and after 1 hr the radioactivity counted using a TopCount Microplate Scintillation Counter (Packard Instrument Company).

Chain of rat TAAR1 (Q923Y9 whole entry): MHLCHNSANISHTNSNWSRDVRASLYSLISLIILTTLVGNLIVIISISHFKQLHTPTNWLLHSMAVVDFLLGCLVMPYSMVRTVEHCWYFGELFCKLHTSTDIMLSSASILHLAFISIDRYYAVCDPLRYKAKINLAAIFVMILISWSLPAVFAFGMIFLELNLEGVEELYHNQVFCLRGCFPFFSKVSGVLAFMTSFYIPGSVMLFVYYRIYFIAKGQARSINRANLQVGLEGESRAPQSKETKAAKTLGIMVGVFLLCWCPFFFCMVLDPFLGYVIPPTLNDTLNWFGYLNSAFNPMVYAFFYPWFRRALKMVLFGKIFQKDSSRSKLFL

Structure (SMILES)	pKi (rat TAAR1)	pKi (mouse TAAR1)	Ki (rat TAAR1) [µM]	Ki (mouse TAAR1) [µM]
O=C(Nc1ccc([C@@H]2O[C@H]3CN[C@@H]2C3)cc1)c1ccc(C(F)(F)F)cn1 [Example 71, N-[4-[(1R,3S,4R)-2-Oxa-5-azabicyclo[2.2.1]heptan-3-yl]phenyl]-5-(trifluoromethyl)pyridine-2-carboxamide]	7.87	8.27	–	–
O=C(Nc1ccc([C@@H]2O[C@H]3CN[C@@H]2C3)cc1)c1ccc(C(F)(F)F)nc1 [Example 72, N-[4-[(1R,3S,4R)-2-Oxa-5-azabicyclo[2.2.1]heptan-3-yl]phenyl]-6-(trifluoromethyl)pyridine-3-carboxamide]	8.03	7.82	–	–
O=C(COCC(F)(F)F)Nc1ccc([C@@H]2O[C@H]3CN[C@@H]2C3)cc1 [Example 73, N-[4-[(1R,3S,4R)-2-Oxa-5-azabicyclo[2.2.1]heptan-3-yl]phenyl]-2-(2,2,2-trifluoroethoxy)acetamide]	6.07	7.75	–	–
CCc1ncc(C(=O)Nc2ccc([C@@H]3O[C@H]4CN[C@@H]3C4)cc2)cn1 [Example 74, 2-Ethyl-N-[4-[(1R,3S,4R)-2-oxa-5-azabicyclo[2.2.1]heptan-3-yl]phenyl]pyrimidine-5-carboxamide]	6.72	6.96	–	–
CC(C)c1cc(C(=O)Nc2ccc([C@@H]3O[C@H]4CN[C@@H]3C4)cc2)[nH]n1 [Example 75, 3-Isopropyl-N-[4-[(1R,3S,4R)-2-oxa-5-azabicyclo[2.2.1]heptan-3-yl]phenyl]-1H-pyrazole-5-carboxamide]	6.62	8.00	–	–
CCc1n[nH]c(C(=O)Nc2ccc([C@@H]3O[C@H]4CN[C@@H]3C4)cc2)c1Cl [Example 76, 4-Chloro-3-ethyl-N-[4-[(1R,3S,4R)-2-oxa-5-azabicyclo[2.2.1]heptan-3-yl]phenyl]-1H-pyrazole-5-carboxamide]	7.07	8.33	–	–
O=C(Nc1ccc([C@@H]2O[C@H]3CN[C@@H]2C3)cc1)c1[nH]nc(C2CC2)c1F [Example 77, 3-Cyclopropyl-4-fluoro-N-[4-[(1R,3S,4R)-2-oxa-5-azabicyclo[2.2.1]heptan-3-yl]phenyl]-11H-pyrazole-5-carboxamide]	–	–	0.137	0.0048
CCCc1n[nH]c(C(=O)Nc2ccc([C@@H]3O[C@H]4CN[C@@H]3C4)cc2)c1F [Example 78, 4-Fluoro-N-[4-[(1R,3S,4R)-2-oxa-5-azabicyclo[2.2.1]heptan-3-yl]phenyl]-3-propyl-1H-pyrazole-5-carboxamide]	6.99	8.38	–	–
FC(F)(F)COc1ccnc(Nc2ccc([C@H]3O[C@@H]4CN[C@H]3C4)cc2)n1 [Example 79, N-[4-[(1S,3R,4S)-2-Oxa-5-azabicyclo[2.2.1]heptan-3-yl]phenyl]-4-(2,2,2-trifluoroethoxy)pyrimidin-2-amine]	7.08	8.22	–	–
FC(F)(F)COc1nccc(Nc2ccc([C@H]3O[C@@H]4CN[C@H]3C4)cc2)n1 [Example 80, N-[4-[(1S,3R,4S)-2-Oxa-5-azabicyclo[2.2.1]heptan-3-yl]phenyl]-2-(2,2,2-trifluoroethoxy)pyrimidin-4-amine]	5.97	8.11	–	–
O=C(Nc1ccc([C@@H]2O[C@H]3CN[C@@H]2C3)cc1)c1ccnc(C(F)(F)F)n1 [Example 81, N-[4-[(1R,3S,4R)-2-Oxa-5-azabicyclo[2.2.1]heptan-3-yl]phenyl]-2-(trifluoromethyl)pyrimidine-4-carboxamide]	6.72	7.57	–	–
O=C(Nc1ccc([C@@H]2O[C@H]3CN[C@@H]2C3)cc1)c1[nH]nc(C2CC2)c1Cl [Example 82, 4-Chloro-3-cyclopropyl-N-[4-[(1R,3S,4R)-2-oxa-5-azabicyclo[2.2.1]heptan-3-yl]phenyl]-11H-pyrazole-5-carboxamide]	–	–	0.0339	0.0035
FC(F)(F)COc1nccc(Nc2ccc([C@@H]3O[C@H]4CN[C@@H]3C4)cc2)n1 [Example 83, N-[4-[(1R,3S,4R)-2-Oxa-5-azabicyclo[2.2.1]heptan-3-yl]phenyl]-2-(2,2,2-trifluoroethoxy)pyrimidin-4-amine]	6.72	8.01	–	–
O=C(CCC(F)(F)F)Nc1ccc([C@H]2O[C@@H]3CN[C@H]2C3)cc1 [Example 84, 4,4,4-Trifluoro-N-[4-[(1S,3R,4S)-2-oxa-5-azabicyclo[2.2.1]heptan-3-yl]phenyl]butanamide]	< 4.82	7.76	–	–
O=C(Nc1ccc(Cl)cc1)c1ccc([C@@H]2O[C@H]3CN[C@@H]2C3)cc1 [Example 85]	5.97	7.79	–	–
O=C(Nc1ccc(Br)cc1)c1ccc([C@@H]2O[C@H]3CN[C@@H]2C3)cc1 [Example 86, N-(4-Bromophenyl)-4-[(1R,3S,4R)-2-oxa-5-azabicyclo[2.2.1]heptan-3-yl]benzamide]	6.09	7.99	–	–
O=C(Nc1ccc(F)cc1)c1ccc([C@@H]2O[C@H]3CN[C@@H]2C3)cc1 [Example 87, N-(4-Fluorophenyl)-4-[(1R,3S,4R)-2-oxa-5-azabicyclo[2.2.1]heptan-3-yl]benzamide]	< 5.84	6.84	–	–

Structure (SMILES)	pKi (rat TAAR1)	pKi (mouse TAAR1)	Ki (rat TAAR1) [µM]	Ki (mouse TAAR1) [µM]
CCOc1ccc(NC(=O)c2ccc([C@@H]3O[C@H]4CN[C@@H]3C4)cc2)cc1 [Example 88, N-(4-Ethoxyphenyl)-4-[(1R,3S,4R)-2-oxa-5-azabicyclo[2.2.1]heptan-3-yl]benzamide]	< 5.84	7.59	–	–
CC(C)n1nc(OCC(F)(F)F)cc1C(=O)Nc1ccc([C@@H]2O[C@H]3CN[C@@H]2C3)cc1 [Example 89, 2-Isopropyl-N-[4-[(1R,3S,4R)-2-oxa-5-azabicyclo[2.2.1]heptan-3-yl]phenyl]-5-(2,2,2-trifluoroethoxy)pyrazole-3-carboxamide]	8.59	7.55	–	–
O=C(COCCC(F)(F)F)Nc1ccc([C@@H]2O[C@H]3CN[C@@H]2C3)cc1 [Example 90, N-[4-[(1R,3S,4R)-2-Oxa-5-azabicyclo[2.2.1]heptan-3-yl]phenyl]-2-(3,3,3-trifluoropropoxy)acetamide]	6.40	7.82	–	–
O=C(CCC(F)(F)F)Nc1ccc([C@@H]2O[C@H]3CN[C@@H]2C3)cc1 [Example 91, 4,4,4-Trifluoro-N-[4-[(1R,3S,4R)-2-oxa-5-azabicyclo[2.2.1]heptan-3-yl]phenyl]butanamide]	< 5.84	7.51	–	–
CCCCc1n[nH]c(C(=O)Nc2ccc([C@@H]3O[C@H]4CN[C@@H]3C4)cc2)c1F [Example 92, 3-Butyl-4-fluoro-N-[4-[(1R,3S,4R)-2-oxa-5-azabicyclo[2.2.1]heptan-3-yl]phenyl]-111H-pyrazole-5-carboxamide]	–	–	0.0879	0.0033
CCCCc1cc(C(=O)Nc2ccc([C@@H]3O[C@H]4CN[C@@H]3C4)cc2)[nH]n1 [Example 93, 3-Butyl-N-[4-[(1R,3S,4R)-2-oxa-5-azabicyclo[2.2.1]heptan-3-yl]phenyl]-1H-pyrazole-5-carboxamide]	7.10	8.38	–	–
O=C(Nc1ccc(Cl)nc1)c1ccc([C@@H]2O[C@H]3CN[C@@H]2C3)cc1 [Example 94, N-(6-Chloro-3-pyridyl)-4-[(1R,3S,4R)-2-oxa-5-azabicyclo[2.2.1]heptan-3-yl]benzamide]	< 5.84	7.60	–	–
CCOc1ccc(NC(=O)c2ccc([C@@H]3O[C@H]4CN[C@@H]3C4)cc2)cn1 [Example 95, N-(6-Ethoxy-3-pyridyl)-4-[(1R,3S,4R)-2-oxa-5-azabicyclo[2.2.1]heptan-3-yl]benzamide]	< 5.84	7.21	–	–
O=C(NCc1ccc(C(F)(F)F)cc1)c1ccc([C@@H]2O[C@H]3CN[C@@H]2C3)cc1 [Example 96, 4-[(1R,3S,4R)-2-Oxa-5-azabicyclo[2.2.1]heptan-3-yl]-N-[[4-(trifluoromethyl)phenyl]methyl]benzamide]	< 5.84	7.32	–	–
O=C(NCc1ccc(Cl)cc1)c1ccc([C@@H]2O[C@H]3CN[C@@H]2C3)cc1 [Example 97, N-[(4-Chlorophenyl)methyl]-4-[(1R,3S,4R)-2-oxa-5-azabicyclo[2.2.1]heptan-3-yl]benzamide]	< 5.84	7.29	–	–
CCOc1n[nH]c(C(=O)Nc2ccc([C@@H]3O[C@H]4CN[C@@H]3C4)cc2)c1Cl [Example 98, 4-Chloro-3-ethoxy-N-[4-[(1R,3S,4R)-2-oxa-5-azabicyclo[2.2.1]heptan-3-yl]phenyl]-1H-pyrazole-5-carboxamide]	7.13	8.17	–	–
CCc1n[nH]c(C(=O)Nc2ccc([C@@H]3O[C@H]4CN[C@@H]3C4)cc2)c1Br [Example 99, 4-Bromo-3-ethyl-N-[4-[(1R,3S,4R)-2-oxa-5-azabicyclo[2.2.1]heptan-3-yl]phenyl]-1H-pyrazole-5-carboxamide]	6.90	8.46	–	–
CC(C)Cc1n[nH]c(C(=O)Nc2ccc([C@@H]3O[C@H]4CN[C@@H]3C4)cc2)c1F [Example 100, 4-Fluoro-3-isobutyl-N-[4-[(1R,3S,4R)-2-oxa-5-azabicyclo[2.2.1]heptan-3-yl]phenyl]-11H-pyrazole-5-carboxamide]	–	–	0.0278	0.0059
CC(C)Cc1cc(C(=O)Nc2ccc([C@@H]3O[C@H]4CN[C@@H]3C4)cc2)[nH]n1 [Example 101, 3-Isobutyl-N-[4-[(1R,3S,4R)-2-oxa-5-azabicyclo[2.2.1]heptan-3-yl]phenyl]-1H-pyrazole-5-carboxamide]	7.09	8.24	–	–
CC(C)c1n[nH]c(C(=O)Nc2ccc([C@@H]3O[C@H]4CN[C@@H]3C4)cc2)c1Cl [Example 102, 4-Chloro-3-isopropyl-N-[4-[(1R,3S,4R)-2-oxa-5-azabicyclo[2.2.1]heptan-3-yl]phenyl]-11H-pyrazole-5-carboxamide]	–	–	0.0142	0.0089
CC(C)c1n[nH]c(C(=O)Nc2ccc([C@@H]3O[C@H]4CN[C@@H]3C4)cc2)c1F [Example 103, 4-Fluoro-3-isopropyl-N-[4-[(1R,3S,4R)-2-oxa-5-azabicyclo[2.2.1]heptan-3-yl]phenyl]-11H-pyrazole-5-carboxamide]	–	–	0.0405	0.0096
